This is an account of results in ChEMBL document CHEMBL1909046, “DrugMatrix in vitro pharmacology data”.

In experiment [1] the target is T1, Alpha-1A adrenergic receptor (Rattus norvegicus, UniProt P43140).
T1 sequence (P43140 whole entry): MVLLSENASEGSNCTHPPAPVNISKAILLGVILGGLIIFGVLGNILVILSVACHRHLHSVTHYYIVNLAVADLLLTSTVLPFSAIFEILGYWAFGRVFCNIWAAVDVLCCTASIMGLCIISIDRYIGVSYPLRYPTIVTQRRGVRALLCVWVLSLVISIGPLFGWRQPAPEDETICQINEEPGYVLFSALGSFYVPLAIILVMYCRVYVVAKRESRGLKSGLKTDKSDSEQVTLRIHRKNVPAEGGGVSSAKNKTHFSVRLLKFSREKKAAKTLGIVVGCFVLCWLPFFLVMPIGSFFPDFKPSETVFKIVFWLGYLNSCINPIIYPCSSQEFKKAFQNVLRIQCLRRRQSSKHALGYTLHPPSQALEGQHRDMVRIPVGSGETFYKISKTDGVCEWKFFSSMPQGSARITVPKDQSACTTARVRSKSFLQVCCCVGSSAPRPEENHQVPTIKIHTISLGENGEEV
Kind of experiment: DRUGMATRIX: Alpha-1A adrenergic receptor radioligand binding (ligand: prazosin). To be noted: Not Active = under 50% inhibition at 10 µM. It counts as cell membranes, Wistar, Submaxillary gland, Membrane.

Experiment [2] deals with Mitogen-activated protein kinase 3 (Homo sapiens, UniProt P27361). In words: DRUGMATRIX: Protein Serine/Threonine Kinase, ERK1 enzyme inhibition (substrate: Myelin Basic Protein). To be noted: Not Active = under 50% inhibition at 10 µM. Further details: species or system Escherichia coli.
Experiment [3] is described as follows: DRUGMATRIX: Phosphodiesterase PDE4 enzyme inhibition (substrate: [3H]cAMP + cAMP). Particulars: u-937; Not Active = under 50% inhibition at 10 µM.
A short description of experiment [4]: DRUGMATRIX: Serotonin (5-Hydroxytryptamine) 5-HT3 radioligand binding (ligand: [3H] GR-65630). The experiment is classed as cell membranes, Membrane. Particulars: hek293; Not Active = under 50% inhibition at 10 µM.
For experiment [5], the target named is T2, Angiotensin-converting enzyme (Oryctolagus cuniculus, UniProt P12822).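 Further: enzymatic inhibition of angiotensin-converting enzyme measured with FAPGG as the substrate; in other assays of this panel Not Active means under 50% inhibition at 10 µM.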
T2 sequence (P12822 whole entry): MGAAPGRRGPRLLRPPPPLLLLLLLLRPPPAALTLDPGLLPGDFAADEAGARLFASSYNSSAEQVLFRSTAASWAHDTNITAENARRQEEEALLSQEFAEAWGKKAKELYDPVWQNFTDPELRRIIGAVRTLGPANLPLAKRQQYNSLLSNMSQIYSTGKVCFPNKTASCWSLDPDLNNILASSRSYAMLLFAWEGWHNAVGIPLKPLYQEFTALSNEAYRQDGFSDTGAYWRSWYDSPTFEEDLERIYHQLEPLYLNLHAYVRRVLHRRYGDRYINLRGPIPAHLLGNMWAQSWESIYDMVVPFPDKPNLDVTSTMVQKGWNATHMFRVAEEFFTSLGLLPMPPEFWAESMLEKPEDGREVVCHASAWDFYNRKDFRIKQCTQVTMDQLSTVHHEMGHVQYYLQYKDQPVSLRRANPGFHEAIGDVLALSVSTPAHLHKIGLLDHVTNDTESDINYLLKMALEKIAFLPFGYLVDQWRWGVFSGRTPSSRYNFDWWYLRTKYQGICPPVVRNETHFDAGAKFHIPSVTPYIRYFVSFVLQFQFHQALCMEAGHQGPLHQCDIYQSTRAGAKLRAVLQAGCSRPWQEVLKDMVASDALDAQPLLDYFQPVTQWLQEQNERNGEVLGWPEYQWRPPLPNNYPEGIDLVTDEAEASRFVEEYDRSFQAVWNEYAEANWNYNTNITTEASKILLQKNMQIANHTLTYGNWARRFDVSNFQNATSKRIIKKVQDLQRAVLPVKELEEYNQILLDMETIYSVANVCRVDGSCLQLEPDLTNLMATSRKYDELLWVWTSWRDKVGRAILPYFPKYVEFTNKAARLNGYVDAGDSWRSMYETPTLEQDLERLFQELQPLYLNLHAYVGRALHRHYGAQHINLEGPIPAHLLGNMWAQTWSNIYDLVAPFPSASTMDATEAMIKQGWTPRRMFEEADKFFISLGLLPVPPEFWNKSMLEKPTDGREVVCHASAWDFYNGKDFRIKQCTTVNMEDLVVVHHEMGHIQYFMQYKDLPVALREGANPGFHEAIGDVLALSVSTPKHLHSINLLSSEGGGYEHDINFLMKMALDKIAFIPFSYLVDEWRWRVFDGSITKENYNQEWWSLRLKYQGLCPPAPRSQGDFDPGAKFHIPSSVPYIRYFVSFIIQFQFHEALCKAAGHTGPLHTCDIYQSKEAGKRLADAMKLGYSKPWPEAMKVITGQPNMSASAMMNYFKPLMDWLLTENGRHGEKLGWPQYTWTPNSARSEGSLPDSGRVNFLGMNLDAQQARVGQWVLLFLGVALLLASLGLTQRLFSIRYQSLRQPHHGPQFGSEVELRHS
The experiment is classed as tissue-based, Lung.

Experiment [6] deals with C-C chemokine receptor type 5 (Homo sapiens, UniProt P51681). It counts as cell membranes, Membrane. Particulars: hek293.
Another experiment has as its target T3, Adenosine receptor A1 (Homo sapiens, UniProt P30542).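 Further: radioligand binding assay at the adenosine A1 receptor, with DPCPX serving as the labelled ligand; in other assays of this panel Not Active means under 50% inhibition at 10 µM.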
T3 sequence (P30542 whole entry): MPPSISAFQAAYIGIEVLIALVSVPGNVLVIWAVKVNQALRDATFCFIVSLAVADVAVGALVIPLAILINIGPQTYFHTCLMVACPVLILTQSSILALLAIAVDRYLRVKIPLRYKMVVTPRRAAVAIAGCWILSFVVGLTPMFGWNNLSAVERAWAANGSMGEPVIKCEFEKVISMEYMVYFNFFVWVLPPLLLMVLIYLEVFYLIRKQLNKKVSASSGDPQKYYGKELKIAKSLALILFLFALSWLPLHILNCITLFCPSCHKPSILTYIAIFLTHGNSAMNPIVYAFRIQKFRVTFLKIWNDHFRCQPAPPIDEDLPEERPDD
It counts as cell membranes, CHO, Membrane. Particulars: cho.

Mitogen-activated protein kinase 3, sequence (P27361 whole entry): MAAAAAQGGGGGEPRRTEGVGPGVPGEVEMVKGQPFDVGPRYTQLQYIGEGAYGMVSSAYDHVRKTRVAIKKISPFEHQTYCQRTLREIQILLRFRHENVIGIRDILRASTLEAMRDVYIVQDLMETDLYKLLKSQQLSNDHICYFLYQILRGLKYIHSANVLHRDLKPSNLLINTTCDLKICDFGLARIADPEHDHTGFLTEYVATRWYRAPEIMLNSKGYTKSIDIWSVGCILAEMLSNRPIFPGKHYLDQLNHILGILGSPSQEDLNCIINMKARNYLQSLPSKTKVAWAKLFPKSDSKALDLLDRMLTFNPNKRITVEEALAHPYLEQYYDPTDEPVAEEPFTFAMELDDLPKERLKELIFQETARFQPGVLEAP
C-C chemokine receptor type 5, sequence (P51681 whole entry): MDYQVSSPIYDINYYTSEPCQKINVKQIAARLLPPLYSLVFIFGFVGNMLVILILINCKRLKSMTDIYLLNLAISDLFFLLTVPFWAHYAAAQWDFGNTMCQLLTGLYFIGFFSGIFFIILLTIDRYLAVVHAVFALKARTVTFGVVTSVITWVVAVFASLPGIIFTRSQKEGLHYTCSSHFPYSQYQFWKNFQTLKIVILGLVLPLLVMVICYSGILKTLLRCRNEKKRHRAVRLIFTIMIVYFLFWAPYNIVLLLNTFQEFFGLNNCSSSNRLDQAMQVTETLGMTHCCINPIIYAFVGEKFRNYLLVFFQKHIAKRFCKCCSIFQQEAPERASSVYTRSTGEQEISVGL

For the molecule `CN(CCOc1ccc(CC2SC(=O)NC2=O)cc1)c1ccccn1` (stereo unspecified) [ROSIGLITAZONE], the IC50 result in experiment [1], in experiment [2], in experiment [3], in experiment [4], in experiment [5] and in experiment [6] was “Not Active” throughout. For the same molecule, on Adenosine receptor A1, the IC50 entry was “Not Active”. The Ki entry in experiment [3] and in experiment [4] was “Not Active” each time.
For the molecule `C=C(C)[C@H]1Cc2c(ccc3c2O[C@@H]2COc4cc(OC)c(OC)cc4[C@@H]2C3=O)O1` [ROTENONE], the IC50 result in experiment [1], in experiment [2], in experiment [3], in experiment [4], in experiment [5] and in experiment [6] was “Not Active” each time. Also, at Adenosine receptor A1, the IC50 entry is listed as “Not Active”. For the same molecule, the Ki entry in experiment [3] and in experiment [4] was “Not Active” in each case.
On to `C#CCN(C)[C@H](C)Cc1ccccc1` [SELEGILINE], for which the IC50 entry in experiment [1], in experiment [2], in experiment [3], in experiment [4], in experiment [5] and in experiment [6] was “Not Active” throughout. Further, the IC50 result on Adenosine receptor A1 is “Not Active”. The Ki entry in experiment [3] and in experiment [4] was “Not Active” in each case.
`CO[C@H]1C[C@@H]2CC[C@@H](C)[C@@](O)(O2)C(=O)C(=O)N2CCCC[C@H]2C(=O)O[C@H]([C@H](C)C[C@@H]2CC[C@@H](O)[C@H](OC)C2)CC(=O)[C@H](C)/C=C(\C)[C@@H](O)[C@@H](OC)C(=O)[C@H](C)C[C@H](C)/C=C/C=C/C=C/1C` [SIROLIMUS]: the IC50 entry in experiment [1], in experiment [2], in experiment [3], in experiment [4], in experiment [5] and in experiment [6] was “Not Active” in each case. For the same molecule, at Adenosine receptor A1, the concentration for half-maximal inhibition (IC50) entry is given as “Not Active”. In addition, the Ki entry in experiment [3] and in experiment [4] was “Not Active” in each case.
`CN[C@@H]1[C@H](O)[C@H](NC)[C@H]2O[C@@]3(O)C(=O)C[C@@H](C)O[C@H]3O[C@@H]2[C@H]1O` [SPECTINOMYCIN]: the IC50 result in experiment [1], in experiment [2], in experiment [3], in experiment [4], in experiment [5] and in experiment [6] was “Not Active” each time. The IC50 entry against Adenosine receptor A1 was “Not Active”. For the same molecule, the Ki result in experiment [3] and in experiment [4] was “Not Active” throughout.
As to `Nc1ccc(S(=O)(=O)Nc2ncccn2)cc1` [SULFADIAZINE], the IC50 result in experiment [1], in experiment [2], in experiment [3], in experiment [4], in experiment [5] and in experiment [6] was “Not Active” throughout. Moreover, the IC50 result on Adenosine receptor A1 is given as “Not Active”. In addition, the Ki entry in experiment [3] and in experiment [4] was “Not Active” in each case.
Regarding `COc1ncnc(NS(=O)(=O)c2ccc(N)cc2)c1OC` [SULFADOXINE], the IC50 entry in experiment [1], in experiment [2], in experiment [3], in experiment [4], in experiment [5] and in experiment [6] was “Not Active” throughout. In addition, on Adenosine receptor A1, the IC50 result is reported as “Not Active”. Moreover, the Ki result in experiment [3] and in experiment [4] was “Not Active” throughout.
For the molecule `Nc1ccc(S(=O)(=O)Nc2nccs2)cc1` [SULFATHIAZOLE], the IC50 result in experiment [1], in experiment [2], in experiment [3], in experiment [4], in experiment [5] and in experiment [6] was “Not Active” each time. Further, the IC50 entry against Adenosine receptor A1 is “Not Active”. For the same molecule, the Ki result in experiment [3] and in experiment [4] was “Not Active” in each case.
Consider `C[C@]12CC[C@H]3[C@@H](CCC4=CC(=O)CC[C@@]43C)[C@@H]1CC[C@@H]2O` [TESTOSTERONE], for which the IC50 entry in experiment [1], in experiment [2], in experiment [3], in experiment [4], in experiment [5] and in experiment [6] was “Not Active” throughout. Also, at Adenosine receptor A1, the IC50 entry was “Not Active”. For the same molecule, the Ki result in experiment [3] and in experiment [4] was “Not Active” each time.
Take `CC(C)(C)NC[C@H](O)COc1nsnc1N1CCOCC1` [TIMOLOL]: the IC50 result in experiment [1], in experiment [2], in experiment [3], in experiment [4], in experiment [5] and in experiment [6] was “Not Active” each time. In addition, at Adenosine receptor A1, the concentration for half-maximal inhibition (IC50) result is “Not Active”. Moreover, the Ki result in experiment [3] and in experiment [4] was “Not Active” each time.
Consider `CCS(=O)(=O)CCn1c([N+](=O)[O-])cnc1C` [TINIDAZOLE], for which the IC50 entry in experiment [1], in experiment [2], in experiment [3], in experiment [4], in experiment [5] and in experiment [6] was “Not Active” in each case. Further, the IC50 entry on Adenosine receptor A1 is reported as “Not Active”. The Ki result in experiment [3] and in experiment [4] was “Not Active” throughout.
For `C[C@@H]1C[C@H]2[C@@H]3CCC4=CC(=O)C=C[C@]4(C)C3=CC[C@]2(C)[C@H]1C(=O)CN1CCN(c2cc(N3CCCC3)nc(N3CCCC3)n2)CC1` [TIRILAZAD], the half-inhibitory concentration (IC50) entry in experiment [1] is “Not Active”; in experiment [2] (read-out: IC50), 16.3 µM; in experiment [3] it was “Not Active”; in experiment [4] it was “Not Active”; in experiment [5], “Not Active”; in experiment [6], “Not Active”. At Adenosine receptor A1, the IC50 entry is on record as “Not Active”. The Ki result in experiment [3] and in experiment [4] was “Not Active” throughout.
As for `NC[C@H]1O[C@H](O[C@H]2[C@H](O)[C@@H](O[C@H]3O[C@H](CO)[C@@H](O)[C@H](N)[C@H]3O)[C@H](N)C[C@@H]2N)[C@H](N)C[C@@H]1O` [TOBRAMYCIN], the IC50 result in experiment [1], in experiment [2], in experiment [3], in experiment [4], in experiment [5] and in experiment [6] was “Not Active” each time. The IC50 entry against Adenosine receptor A1 is reported as “Not Active”. Further, the Ki result in experiment [3] and in experiment [4] was “Not Active” in each case.
In the case of `O=C(O)C(Cl)(Cl)Cl` [TRICHLOROACETIC ACID], the IC50 entry in experiment [1], in experiment [2], in experiment [3], in experiment [4], in experiment [5] and in experiment [6] was “Not Active” throughout. Besides, at Adenosine receptor A1, the IC50 entry is reported as “Not Active”. Moreover, the Ki entry in experiment [3] and in experiment [4] was “Not Active” throughout.

What is called IC50 is the concentration that gives 50% inhibition.
